Structures can show the parent of a compound that is named as a salt.
Legend:
Type in all cases: in vivo
[1] = test system: mice; test: Pedestal test (mice staying on the pedestal for more than 1 minute); settings: Mus musculus, ip, 1 min, intraperitoneal injection, stay on pedestal for more than 1 minute, read-out: ED50, P = pedestal test
Protocol: (§1) The free bases and acid addition salts of the novel compounds of Formula I are useful as central nervous system (CNS) depressants when administered to humans and animals.
(§2) Tranquilizing effects of certain compounds of this invention are shown by the following tests in mice:
Pedestal test: The untreated mouse leaves a standard pedestal in less than a minute to climb back to the floor of the standard mouse box. Tranquilized mice will stay on the pedestal for more than 1 minute.

[2] = test system: mice; test: Chimney test (ability of mice to back up and out of a vertical glass cylinder within 30 seconds); settings: Mus musculus, ip, intraperitoneal injection, dose at which 50% of the mice failed to back out within 30 seconds, read-out: ED50, Ch = chimney test
Source text: as §1, §2
Chimney test: [Med. Exp. 4, 145 (1961)]: The test determines the ability of mice to back up and out of a vertical glass cylinder within 30 seconds. At the effective dosage, 50% of the mice failed doing it.

[3] = test system: mice; test: Nicotine antagonism test (nicotine salicylate 2 mg./kg.; (3) death); settings: Mus musculus, ip, intraperitoneal injection 30 minutes before nicotine salicylate (2 mg./kg.), read-out: ED50, Ni = nicotine antagonism (3) test
Protocol: as §2
Nicotine antagonism test: Mice in a group of 6 are injected with the test compound. Thirty minutes later the mice including control (untreated) mice are injected with nicotine salicylate (2 mg./kg.). The control mice show overstimulation, i.e., (1) running convulsions followed by (2) tonic extensor fits; followed by (3) death.

[4] = test system: mice; test: Dish test (mice remaining in Petri dish for more than 3 minutes); settings: Mus musculus, ip, 0.05 h, intraperitoneal injection, dose at which 50% of the mice remain in the dish more than 3 minutes, read-out: ED50, D = dish test
Protocol: as §1, §2
Dish test: Mice in Petri dishes (10 cm. diameter, 5 cm. high, partially embedded in wood shavings), climb out in a very short time, when not treated. Mice remaining in the dish for more than 3 minutes indicates tranquilization. ED50 equals the dose of test compound at which 50% of the mice remain in the dish.

CO[C@]1(c2ccc(F)cc2)CC[C@@H](NCCCC(=O)c2ccc(F)cc2)CC1 [4'-fluoro-4-{[4-cis-(p-fluorophenyl)-4-transmethoxycyclohexyl]amino}butyrophenone hydrohydrochloride (I)]
ED50 [1]: 2.5 mg/kg
ED50 [2]: 8 mg/kg
ED50 [3]: 3.2 mg/kg
ED50 [4]: 1.6 mg/kg

CO[C@]1(c2ccc(C)cc2)CC[C@H](NCCCC(=O)c2ccc(F)cc2)CC1 [4'-fluoro-4-{[4-cis-methoxy-4-trans-(p-methylphenyl)cyclohexyl]amino}butyrophenone hydrochloride (I)]
ED50 [1]: 2 mg/kg
ED50 [2]: 2.5 mg/kg
ED50 [3]: 4.5 mg/kg
ED50 [4]: 1.1 mg/kg

CO[C@]1(c2ccc(F)cc2)CC[C@H](NCCCC(=O)c2ccc(F)cc2)CC1 [4'-fluoro-4-{[4-trans-(p-fluorophenyl)-4-cis-methoxycyclohexyl]amino}butyrophenone hydrochloride (I)]
ED50 [1]: 1.3 mg/kg
ED50 [2]: 2.5 mg/kg
ED50 [3]: 0.4 mg/kg
ED50 [4]: 0.09 mg/kg

From patent US3965180A, “4'-Fluoro-4-{[4-(phenyl)-4-alkoxy-cyclo-hexyl]amino}butyrophenones and the salts thereof” (The Upjohn Company, priority 1973, dated 1976)
